Our source for the IC50, DC50 and Dmax values is US20260167622A1, “PAN-KRAS DEGRADING AGENT, AND PREPARATION METHOD THEREFOR AND USE THEREOF” (LEADINGTAC PHARMACEUTICAL (SHAOXING) CO., LTD., priority 2022, published 2026).

Holding throughout (type): cell-based
The subject of test [1] is KRAS G13D mutant human colorectal cancer epithelial cell DLD-1. In words: 3D cell proliferation inhibition assay, DLD-1. As to conditions: DLD-1, 168 h, 3D culture, 7 days, CTG. An excerpt:
(§1) Test Example 6: 3D Cell Proliferation Inhibition Assay
(§2) The inhibitory effects of the compounds on 3D cell proliferation were investigated on KRAS G12C mutant human non-small cell lung cancer cell NCI-H358, KRAS G12D mutant human lung cancer cell A427, KRAS G12D mutant human gastric cancer cell AGS, KRAS G12D mutant human metastatic pancreatic cancer cell AsPc-1, KRAS G12V mutant human lung squamous carcinoma cell SW900, KRAS G12V mutant human colorectal cancer cell SW620, KRAS G13D mutant human colorectal cancer epithelial cell DLD-1, and KRAS WT human gastric cancer cell MKN1. The specific procedures were as follows:
(§3) 10 μL of each compound solution diluted in a gradient was added to corresponding wells of a 96-well low-adsorption microplate (PerkinElmer), so that the final concentrations of the test compounds in the reaction system were in a range of 10000-0.026 nM. The final concentration of DMSO was 0.2%. Then 90 µL of cells were correspondingly seeded into each well to achieve a cell density of 5×10^2 cells/well (the cell density of SW900 was 5×10^3 cells/well, and the cell density of MKN1 was 1×10^3 cells/well). In addition to test wells for the test compounds, both a DMSO control well and a medium control well were set, with the DMSO control well containing DMSO and cells and the medium well containing only a medium. After the sample loading, the 96-well low-adsorption microplate was incubated in an incubator at 37° C. with […] for 7 days. After 7 days, the microplate was taken out, and 100 μL of CTG reagent (Promega) was added to each well. The plate was incubated at room temperature for 60 m and read on a microplate reader EnVision by the chemiluminescence program. The inhibition rates of the compounds at each concentration were calculated using the formula for the percentage inhibition of cell proliferation: inhibition rate 00=(mean value of DMSO control group−single concentration reading value of compound)/(mean value of DMSO control group−mean value of medium control group)×100. Then non-linear curve fillings for logarithmic concentration-inhibition rate were performed by GraphPad Prism 8, and the IC50 values of the compounds were obtained (Table 6).

In test [2] the test system is KRAS WT human gastric cancer cell MKN1. In words: 3D cell proliferation inhibition assay, MKN1. To be noted: MKN-1, 168 h, 3D culture, 7 days, CTG.
Description: as §1, §2, §3

The subject of test [3] is KRAS G12C mutant human non-small cell lung cancer cell NCI-H358. Kind of test: 3D cell proliferation inhibition assay, NCI-H358. As to conditions: NCI-H358, 168 h, 3D culture, 7 days, CTG.
Description: as §1, §2, §3

For test [4], the system named is KRAS G12V mutant human colorectal cancer cell SW620. In words: 3D cell proliferation inhibition assay, SW620. As to conditions: SW-620, 168 h, 3D culture, 7 days, CTG.
Description: as §1, §2, §3

For test [5], the system named is KRAS G12D mutant human metastatic pancreatic cancer cell AsPc-1. In words: 3D cell proliferation inhibition assay, AsPc-1. As to conditions: ASPC1, 168 h, 3D culture, 7 days, CTG.
Description: as §1, §2, §3

In test [6] the target is T1, KRAS G12V protein in SW620 cells (Homo sapiens, UniProt P01116, G12V).
T1 construct: endogenous in cells; host or cells: SW620
T1 sequence (P01116 1-188 isoform P01116-2 G12V): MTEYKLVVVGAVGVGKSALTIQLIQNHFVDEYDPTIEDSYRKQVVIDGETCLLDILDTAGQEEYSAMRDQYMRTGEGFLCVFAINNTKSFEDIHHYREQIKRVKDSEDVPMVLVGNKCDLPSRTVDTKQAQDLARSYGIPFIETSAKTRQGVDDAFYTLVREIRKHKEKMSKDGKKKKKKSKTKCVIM
In words: KRAS degradation assay (Western Blot) in SW620 cells. To be noted: for DC50: 24 h; for Dmax: SW-620, 24 h. An excerpt:
(§4) Test Example 5: KRAS G12C, KRAS G12D, KRAS G12V, KRAS G13D, and KRAS WT (Expanded) Degradation Assays
(§5) The degradation effect of the compounds on KRAS was investigated on KRAS G12C mutant human non-small cell lung cancer cell NCI-H358, KRAS G12D mutant human metastatic pancreatic cancer cell AsPc-1, KRAS G12D mutant human lung cancer cell A427, KRAS G12V mutant human colorectal cancer cell SW620, KRAS G12V mutant human lung cancer cell SW900, KRAS G13D mutant human colorectal cancer epithelial cell DLD-1, and KRAS WT human gastric cancer cell MKN-1. The specific procedures were as follows: 0.95 mL of cells were seeded into each well of a 24-well cell culture plate to achieve a cell density of 5×10^5 cells/well; and the cell plate was incubated in an incubator at 37° C. with 5% CO2 overnight. Then 50 μL of the compound solution after dilution was added to each of the wells with the corresponding cells, so that the final concentration of the compound was in a range of 0.03-3000 nM. The final concentration of DMSO was 0.25%. After the compounds were added, the cell plate was incubated in an incubator at 37° C. with 5% CO2 for 24 h. The culture medium in the 24-well cell culture plate was then removed, and the plate was washed twice with 1×PBS (KeyGEN). 120 μL of RIPA (strong) lysis buffer (Beyotime) (supplemented with 1 mM phenylmethylsulfonyl fluoride, a protease inhibitor mixture (Beyotime), and a protease phosphatase inhibitor mixture (Beyotime)) was added to lyse adherent SW900 cells at the bottom of the cell culture plate. After the plate was left to stand on ice for 30 min, the protein lysate in each well was transferred to a 1.5 mL centrifuge tube and centrifuged at 15000 g for 20 min at 4° C. The cell lysate supernatants after centrifugation were cryopreserved in a refrigerator at −80° C. for later use.
(§6) After the samples of the cell lysate supernatants that had been prepared were thawed from the refrigerator at −80° C., the total protein concentrations of the cell lysates were determined using a BCA protein quantification kit (Tiangen). The total protein concentrations of the samples were then adjusted to 0.5 μg/μL with PBS and 5×SDS-PAGE protein loading buffer (Beyotime), and the samples were incubated in a water bath at 100° C. for 15 min. The samples were then incubated in an ice bath for 5 min and centrifuged at 14000 g for 1 min at 4° C., and the supernatants were mixed well as loading samples for the Western Blot assay. The samples were loaded into wells of a 10% precast gel (KeyGEN) with a loading volume of 10 μL (total protein: 5 μg), a sufficient Tris-MOPS-SDS running buffer (Adamas) was added, and then electrophoresis was performed at a constant voltage of 120 V for 55 min. After the electrophoresis, the proteins on the gel were transferred to PVDF membranes at a constant current of 250 mA for 55 min. After the membrane transfer, the PVDF membranes were incubated in 1× Quick Block blocking buffer (Beyotime)at room temperature for 30 min. After the blocking, the PVDF membranes were separately incubated at 4° C. overnight with the KRAS antibody (Abcam) diluted in a ratio of 1:1000 and the β-actin antibody (Abcam) diluted in a ratio of 1:2000 in 5% BSA as the diluent, and then washed with 1×TBST buffer (2.4 g of Tris, 8.8 g of NaCl, 1.5 mL of Tween 20, with pH adjusted to 7.4, with the volume brought to 1 L) 3 times for 10 min/time. The membranes were incubated with a secondary antibody (Abcam) diluted in 5% BSA at room temperature for 2 h, and then washed with 1×TBST buffer 3 times for 10 min/time. Finally, the membranes were incubated with Clarity Western ECL Substrate (BIO-RAD) for 5 min for luminescence and color development, and a ChemiScope 6200 Touch chemiluminescence imaging system (Clinx) was used for color development and protein mapping. Gray value analysis of the protein maps was performed using the chemiluminescence analysis software (Clinx). […]
(In general: A western blot detects proteins with antibodies after separation by electrophoresis.)

In test [7] the test system is KRAS G12V mutant human lung squamous carcinoma cell SW900. Kind of test: 3D cell proliferation inhibition assay, SW900. As to conditions: SW900, 168 h, 3D culture, 7 days, CTG.
Description: as §1, §2, §3

The target of test [8] is T2, KRAS G12V protein in SW900 cells (Homo sapiens, UniProt P01116, G12V).
T2 construct: endogenous in cells; host or cells: SW900
T2 sequence (P01116 1-188 isoform P01116-2 G12V): as above
Kind of test: KRAS degradation assay (Western Blot) in SW900 cells. To be noted: 24 h.
Description: as §4, §5, §6

For the compound `C#Cc1c(F)ccc2cc(O)cc(-c3ncc4c(N5CCCC(F)(F)C5)nc(OCC5(CN6CCN(CC7CCC8(CC7)CCN(C(=O)c7ccc(OC)c(N9CCC(=O)NC9=O)c7)CC8)CC6)CC5)nc4c3F)c12` [Example 72, 1-(5-(9-((4-((1-(((4-(3,3-difluoropiperidin-1-yl)-7-(8-ethynyl-7-fluoro-3-hydroxynaphthalen-1-yl)-8-fluoropyrido[4,3-d]pyrimidin-2-yl)oxy)methyl)cyclopropyl)methyl)piperazin-1-yl)methyl)-3-azaspiro[5.5]undecane-3-carbonyl)-2-methoxyphenyl)dihydropyrimidine-2,4(1H,3H)-dione], the 50% inhibitory concentration (IC50) in test [1] is 54.3 nM; in test [2] it was 102 nM; in test [3], 32.9 nM; in test [4] it was 22 nM; in test [5], 176 nM. Further, in test [6], the half-maximal degradation concentration (DC50) is 11.8 nM. In test [6], this compound showed a Dmax of 95.2%.
Regarding `C#Cc1c(F)ccc2cc(O)cc(-c3ncc4c(N5CCC[C@@](C)(O)C5)nc(OCC5(CN6CCN(CCC#CC7CCN(C(=O)c8ccc(Cl)c(N9CCC(=O)NC9=O)c8)CC7)CC6)CC5)nc4c3F)c12` [Example 43, (R)-1-(2-chloro-5-(4-(4-(4-((1-(((7-(8-ethynyl-7-fluoro-3-hydroxynaphthalen-1-yl)-8-fluoro-4-(3-hydroxy-3-methylpiperidin-1-yl)pyrido[4,3-d]pyrimidin-2-yl)oxy)methyl)cyclopropyl)methyl)piperazin-1-yl)but-1-yn-1-yl)piperidine-1-carbonyl)phenyl)dihydropyrimidine-2,4(1H,3H)-dione], the IC50 is no more than 50 nM in test [7], 50 to 100 nM in test [2] and 50 to 100 nM in test [5]. The same compound gave a DC50 in test [8] of no more than 50 nM. The Dmax in test [8] lay in the range of 80 to 100%.
As to `C#Cc1c(F)ccc2cc(O)cc(-c3ncc4c(N5CCCCCC5)nc(OCC5(CN6CCN(CC7CCC8(CC7)CCN(C(=O)c7ccc(C)c(N9CCC(=O)NC9=O)c7)CC8)CC6)CC5)nc4c3F)c12` [Example 37, 1-(5-(9-((4-((1-(((4-(azepan-1-yl)-7-(8-ethynyl-7-fluoro-3-hydroxynaphthalen-1-yl)-8-fluoropyrido[4,3-d]pyrimidin-2-yl)oxy)methyl)cyclopropyl)methyl)piperazin-1-yl)methyl)-3-azaspiro[5.5]undecane-3-carbonyl)-2-methylphenyl)dihydropyrimidine-2,4(1H,3H)-dione], the IC50 in test [7] is no more than 50 nM; in test [2] it was no more than 50 nM; in test [5] it was 100 to 500 nM.
Turning to `C#Cc1c(F)ccc2cc(O)cc(-c3ncc4c(N5CCCC(F)(F)C5)nc(OC[C@H](C)CN5CCN(CC6CCC7(CC6)CCN(C(=O)c6ccc(OC)c(N8CCC(=O)NC8=O)c6)CC7)CC5)nc4c3F)c12` [Example 67, (R)-1-(5-(9-((4-(3-((4-(3,3-difluoropiperidin-1-yl)-7-(8-ethynyl-7-fluoro-3-hydroxynaphthalen-1-yl)-8-fluoropyrido[4,3-d]pyrimidin-2-yl)oxy)-2-methylpropyl)piperazin-1-yl)methyl)-3-azaspiro[5.5]undecane-3-carbonyl)-2-methoxyphenyl)dihydropyrimidine-2,4(1H,3H)-dione], the IC50 in test [1] was 70.2 nM; in test [3], 535 nM; in test [4] it was 32.9 nM; in test [5] it was 417 nM. Further, in test [6], the DC50 was 33.6 nM. The Dmax in test [6] is 93.1%.
For `C#Cc1c(F)ccc2cc(O)cc(-c3ncc4c(N5CCC[C@@](C)(O)C5)nc(OCC(C)CN5CCN(CC6CCC7(CC6)CCN(C(=O)c6ccc(OC)c(N8CCC(=O)NC8=O)c6)CC7)CC5)nc4c3F)c12` (stereo partly drawn) [Example 86, 1-(5-(9-((4-(3-((7-(8-ethynyl-7-fluoro-3-hydroxynaphthalen-1-yl)-8-fluoro-4-((R)-3-hydroxy-3-methylpiperidin-1-yl)pyrido[4,3-d]pyrimidin-2-yl)oxy)-2-methylpropyl)piperazin-1-yl)methyl)-3-azaspiro[5.5]undecane-3-carbonyl)-2-methoxyphenyl)dihydropyrimidine-2,4(1H,3H)-dione], the IC50 in test [1] came to 9.98 nM; in test [2], 5.23 nM; in test [3], 6.63 nM; in test [4] it was 7.01 nM; in test [5] it was 21.2 nM. In test [6], this compound displayed a DC50 of 14.2 nM. This compound returned a Dmax in test [6] of 89.2%.
Regarding `C#Cc1cccc2cc(O)cc(-c3ncc4c(N5CCC[C@@](C)(O)C5)nc(OCC5(CN6CCC(CCOCC7CCN(C(=O)c8ccc(OC)c(N9CCC(=O)NC9=O)c8)CC7)CC6)CC5)nc4c3F)c12` [Example 38, (R)-1-(5-(4-((2-(1-((1-(((7-(8-ethynyl-3-hydroxynaphthalen-1-yl)-8-fluoro-4-(3-hydroxy-3-methylpiperidin-1-yl)pyrido[4,3-d]pyrimidin-2-yl)oxy)methyl)cyclopropyl)methyl)piperidin-4-yl)ethoxy)methyl)piperidine-1-carbonyl)-2-methoxyphenyl)dihydropyrimidine-2,4(1H,3H)-dione], the half-inhibitory concentration (IC50) is 100 to 500 nM in test [7], no more than 50 nM in test [2] and 50 to 100 nM in test [5]. The same compound registered a DC50 in test [8] of no more than 50 nM. Also, the Dmax in test [8] was in the range of 80 to 100%.

By IC50 is commonly meant the concentration that inhibits the measured activity by half. As usually defined, the DC50 is the concentration giving 50% degradation. The Dmax is the greatest extent of degradation seen.
